Patent US20260001875A1, “AMINOPYRIMIDINYL DERIVATIVES FOR THE TREATMENT OF PARKINSON'S DISEASE” (UNIVERSITY OF DUNDEE, priority 2022, published 2026)

Tests used:
Rab10 pThr73 [1] = test: Rab10 Thr73 dephosphorylation (immunoblot) in LRRK2^G2019S MEFs; assay type: cell-based; settings: Mus musculus, read-out: pRab10 inhibited in LRRK2^G2019S MEFs
LRRK2^WT = target: T1, LRRK2^WT (Mus musculus, UniProt Q5S006); test: Western blot LRRK2 degradation in WT MEFs; assay type: cell-based; settings: dose response, 4 h treatment; for Dmax: read-out: Dmax on WT MEFs
T1 construct: endogenous in cells; host or cells: primary wild-type mouse embryonic fibroblasts (MEFs)
T1 sequence (Q5S006 whole entry): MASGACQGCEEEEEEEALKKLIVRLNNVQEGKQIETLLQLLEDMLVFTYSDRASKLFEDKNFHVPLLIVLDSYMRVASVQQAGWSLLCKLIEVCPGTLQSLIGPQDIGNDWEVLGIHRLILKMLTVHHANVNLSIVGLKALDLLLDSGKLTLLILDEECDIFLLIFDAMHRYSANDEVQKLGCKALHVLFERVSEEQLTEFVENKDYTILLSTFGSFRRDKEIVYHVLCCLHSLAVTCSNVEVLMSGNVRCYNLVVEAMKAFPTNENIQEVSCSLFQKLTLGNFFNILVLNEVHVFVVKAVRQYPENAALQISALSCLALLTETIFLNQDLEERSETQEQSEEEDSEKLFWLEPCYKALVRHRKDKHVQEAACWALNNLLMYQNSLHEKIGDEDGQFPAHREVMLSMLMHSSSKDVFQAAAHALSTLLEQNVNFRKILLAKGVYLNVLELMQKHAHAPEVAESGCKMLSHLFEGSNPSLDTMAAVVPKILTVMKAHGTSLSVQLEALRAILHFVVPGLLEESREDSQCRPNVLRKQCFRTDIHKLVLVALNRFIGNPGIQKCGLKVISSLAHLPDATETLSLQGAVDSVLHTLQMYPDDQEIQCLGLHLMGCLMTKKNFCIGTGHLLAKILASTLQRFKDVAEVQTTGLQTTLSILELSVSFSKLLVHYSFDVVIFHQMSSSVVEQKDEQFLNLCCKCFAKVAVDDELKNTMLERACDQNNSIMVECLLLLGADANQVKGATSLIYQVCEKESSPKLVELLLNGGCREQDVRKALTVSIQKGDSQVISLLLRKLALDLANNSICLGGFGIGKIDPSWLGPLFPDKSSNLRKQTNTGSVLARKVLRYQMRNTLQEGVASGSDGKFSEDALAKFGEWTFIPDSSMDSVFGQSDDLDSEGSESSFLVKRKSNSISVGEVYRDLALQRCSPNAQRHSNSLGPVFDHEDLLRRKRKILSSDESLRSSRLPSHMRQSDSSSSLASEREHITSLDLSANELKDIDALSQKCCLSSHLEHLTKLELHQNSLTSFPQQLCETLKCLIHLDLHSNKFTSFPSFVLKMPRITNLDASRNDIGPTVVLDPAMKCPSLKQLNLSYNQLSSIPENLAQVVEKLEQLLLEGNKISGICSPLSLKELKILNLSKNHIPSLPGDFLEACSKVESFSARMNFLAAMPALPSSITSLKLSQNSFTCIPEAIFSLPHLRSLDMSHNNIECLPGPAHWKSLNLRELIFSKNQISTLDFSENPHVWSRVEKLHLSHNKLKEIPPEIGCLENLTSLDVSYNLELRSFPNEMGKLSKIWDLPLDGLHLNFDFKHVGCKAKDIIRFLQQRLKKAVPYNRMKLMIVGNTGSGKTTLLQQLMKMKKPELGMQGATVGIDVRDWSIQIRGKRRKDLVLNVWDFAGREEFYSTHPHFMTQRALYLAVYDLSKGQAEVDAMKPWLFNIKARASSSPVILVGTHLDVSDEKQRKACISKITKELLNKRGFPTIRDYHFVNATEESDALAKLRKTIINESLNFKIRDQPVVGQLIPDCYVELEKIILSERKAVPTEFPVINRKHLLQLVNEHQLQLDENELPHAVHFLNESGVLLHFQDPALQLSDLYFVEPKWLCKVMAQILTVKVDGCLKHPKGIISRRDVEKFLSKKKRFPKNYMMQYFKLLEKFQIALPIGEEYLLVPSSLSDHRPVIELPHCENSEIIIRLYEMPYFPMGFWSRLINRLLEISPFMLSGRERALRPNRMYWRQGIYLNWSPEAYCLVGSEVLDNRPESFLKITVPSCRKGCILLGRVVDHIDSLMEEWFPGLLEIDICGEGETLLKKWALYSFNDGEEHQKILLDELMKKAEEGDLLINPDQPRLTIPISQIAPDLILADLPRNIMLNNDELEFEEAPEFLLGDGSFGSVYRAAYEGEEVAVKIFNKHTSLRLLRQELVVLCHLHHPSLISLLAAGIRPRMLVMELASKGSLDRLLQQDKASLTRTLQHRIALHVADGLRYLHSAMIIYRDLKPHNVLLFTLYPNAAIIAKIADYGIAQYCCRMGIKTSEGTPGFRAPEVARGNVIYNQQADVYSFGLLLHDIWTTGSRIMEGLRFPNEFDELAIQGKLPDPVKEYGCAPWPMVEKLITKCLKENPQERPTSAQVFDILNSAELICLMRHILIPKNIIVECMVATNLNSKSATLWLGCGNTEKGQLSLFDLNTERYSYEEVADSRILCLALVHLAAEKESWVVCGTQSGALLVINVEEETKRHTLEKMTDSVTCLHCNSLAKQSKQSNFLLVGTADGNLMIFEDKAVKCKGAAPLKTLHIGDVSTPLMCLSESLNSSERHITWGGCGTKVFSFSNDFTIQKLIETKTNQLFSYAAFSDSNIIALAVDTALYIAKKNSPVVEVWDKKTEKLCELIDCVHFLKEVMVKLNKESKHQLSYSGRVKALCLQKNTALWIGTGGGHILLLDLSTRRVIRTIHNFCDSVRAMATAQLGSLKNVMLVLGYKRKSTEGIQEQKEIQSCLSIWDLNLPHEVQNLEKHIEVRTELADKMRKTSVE
Procedure: (§1) Western blot degradation assays for the LRRK2 protacs were performed with WT and PD-associated LRRK2 [G2019S] mouse embryonic fibroblasts (MEFs). The second-generation PROTACs were tested in parallel with the first generation PROTACs SD75, SD82, and SD100. The compounds were tested at 33 nM or […] concentrations for 4 hours or 24 hours, running two biological replicates per condition and achieving quantifications representative of both replicates. Analysis by quantitative immunoblotting was performed with readouts of the total LRRK2 (antibody recognizes epitope in C-terminus of protein), Rab10 pThr73 (physiological substrate) and LRRK2 pSer935 (biomarker phosphorylation site).
(§2) Primary MEFs were generated as described in a previous study (Wiggin et al., Mol. Cell Biol. 2002 April; 22(8):2871-81.). Briefly, the uterine horn was collected from adult female mice at day E12.5 and transferred to a 10 cm tissue culture dish containing cold PBS. Two forceps were used to tear the yolk sacs to isolate each embryo. Forceps were cleaned thoroughly with 70% ethanol between each embryo isolation. The embryos were culled, and a tissue piece was collected in a PCR tube for genotyping. The red tissue of the embryo, which grows to become the heart and liver, was removed. The remainder of the embryo was minced with a scalpel blade and incubated with 7.5 ml trypsin-EDTA solution for 10 minutes in a 37° C. tissue culture CO2 incubator. The dish was removed from the incubator and checked under a light microscope for single cells. 7.5 ml complete media was added to the trypsinised cells, and the cell suspension was transferred to a 15 ml Falcon tube, centrifuged at 1200 rpm for 5 minutes at room temperature. The trypsin was aspirated, the cell pellet was resuspended in 5 ml fresh complete media, and the cell suspension was plated in a 60 mm tissue culture dish and incubated in a 37° C., 5% CO2 tissue culture incubator. The MEFs at this stage were considered as passage 0 and were passaged and expanded for experimental use once the genotype was confirmed by allelic sequencing and immunoblotting. MEFs were cultured in Dulbecco's modified Eagle medium (DMEM) containing 10% (v/v) fetal bovine serum (FBS), 2 mM L-glutamine, 100 U/ml penicillin, and 100 μg/ml streptomycin supplemented with 1× non-essential amino acids and 1 mM sodium pyruvate.
Culturing and passaging of adherent cell lines were carried out using aseptic technique in CL1 or CL2 (for PBMC isolation) biological safety cabinets. All cells were incubated in a 37° C. incubator with 5% CO2. Cell lines were regularly tested for mycoplasma contamination. For western blot assay, the cells were seeded in 6-well plates. After treating with testing compounds at indicated concentrations and time period, the media was removed and the cells were washed with PBS and lysed in 100 μl ice-cold complete lysis buffer containing 50 mM Tris-HCl pH 7.4, 1 mM EGTA, 10 mM 2-glycerophosphate, 50 mM sodium fluoride, 5 mM sodium pyrophosphate, 270 mM sucrose, supplemented with 1 μg/ml microcystin-LR, 1 mM sodium orthovanadate, complete EDTA-free protease inhibitor cocktail (Roche) and 1% (v/v) Triton X-100. The cells were immediately placed on ice and were scraped and collected into 1.5 ml Eppendorf tubes. Cell lysates were incubated on ice for 10 minutes prior to centrifugation at 15,000 g at 4° C. for 15 minutes. The cell pellet was discarded, and supernatant was collected for analysis by quantitative immunoblotting. For long term storage, the supernatant was flash frozen and stored at −80° C. Protein concentrations of cell lysates were determined using the Bradford assay.
Cell lysates containing a quarter of a volume of 4× NuPAGE LDS sample buffer (NP0007) supplemented with 5% β-mercaptoethanol, were heated at 95° C. for 5 minutes. […]

Rab10 pThr73 [2] = test: Rab10 Thr73 dephosphorylation (immunoblot) in LRRK2^G2019S MEFs; assay type: cell-based, mouse; settings: Mus musculus; for inhibition at 1 µM: read-out: pRab10 inhibited in LRRK2^G2019S MEFs; for EC50: dose response, 4 h treatment, read-out: G2019S MEFs-pRab10-dephosphorylation EC50
LRRK2^G2019S = target: T2, LRRK2^G2019S (Mus musculus, UniProt Q5S006, G2019S); test: Western blot LRRK2 degradation in LRRK2^G2019S MEFs; assay type: cell-based; settings: dose response, 4 h treatment; for Dmax: read-out: Dmax on G2019S MEFs
T2 construct: endogenous in cells; host or cells: LRRK2[G2019S] mouse embryonic fibroblasts (MEFs)
T2 sequence (Q5S006 whole entry G2019S): as the sequence (Q5S006 whole entry) above, with G2019S counted along it
Procedure: as §1, with “The” for “Western blot degradation assays for the LRRK2 protacs were performed with WT and PD-associated LRRK2 [G2019S] mouse embryonic fibroblasts (MEFs). The”
as §2
Culturing and passaging of adherent cell lines were carried out using aseptic technique in CL1 or CL2 (for PBMC isolation) biological safety cabinets. All cells were incubated in a 37° C. incubator with 5% CO2. Cell lines were regularly tested for mycoplasma contamination. For western blot assay, the cells were seeded in 6-well plates. […] The cells were immediately placed on ice and were scraped and collected into 1.5 ml Eppendorf tubes. Cell lysates were incubated on ice for 10 minutes prior to centrifugation at 15,000 g at 4° C. for 15 minutes. The cell pellet was discarded, and supernatant was collected for analysis by quantitative immunoblotting. For long term storage, the supernatant was flash frozen and stored at −80° C. Protein concentrations of cell lysates were determined using the Bradford assay.
Cell lysates containing a quarter of a volume of 4× NuPAGE LDS sample buffer (NP0007) supplemented with 5% β-mercaptoethanol, were heated at 95° C. for 5 minutes. 15 to 20 μg of samples were loaded onto pre-cast 4-12% Bis-Tris midi 20W or 26W gels (Thermofisher Scientific®, Cat #WG1402BOX or WG1403BOX) and resolved at 130 V for 2 hours with NuPAGE MOPS SDS running buffer (Thermofisher Scientific® Cat #NP0001-02). Proteins were electrophoretically transferred onto a 0.45 μm nitrocellulose membrane (GE Healthcare, Amersham Protran® Supported 0.45 mm NC) at 90 V for 90 min on ice in transfer buffer (48 mM Tris base and 39 mM glycine supplemented with 20% methanol). The transferred membrane was blocked with 5% (w/v) skim milk powder dissolved in tris-buffered saline with tween (TBS-T) (50 mM Tris base, 150 mM sodium chloride (NaCl), 0.1% (v/v) Tween-20) at room temperature for 1 hour.

Rab10 pThr73 [3] = test: Rab10 Thr73 dephosphorylation (immunoblot) in WT MEFs; assay type: cell-based, mouse; settings: Mus musculus; for inhibition at 0.033 µM / inhibition at 1 µM: read-out: pRab10 inhibited in WT MEFs; for EC50: dose response, 4 h treatment, read-out: WT MEFs pRab10-dephosphrylation EC50
Procedure, shortened: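 Wild-type mouse embryonic fibroblasts in 6-well plates were treated with LRRK2 PROTACs, with two biological replicates per condition. Cells were washed in PBS and lysed on ice in buffer containing phosphatase and protease inhibitors plus 1% Triton X-100, then clarified at 15,000 g. Rab10 Thr73 phosphorylation was measured by quantitative immunoblotting of 15 to 20 μg protein on 4-12% Bis-Tris gels.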

CNc1nc(Nc2ccc(OC3CCN(C[C@H]4CC[C@H](CSC(C)(C)C(NC(=O)C5(F)CC5)C(=O)N5C[C@H](O)C[C@H]5C(=O)NCc5ccc(-c6scnc6C)cc5)CC4)CC3)cc2OC)ncc1Cl (stereo partly drawn) [XL02017, (2S,4R)-1-((S)-3-((((1R,4S)-4-((4-(4-((5-chloro-4-(methylamino)pyrimidin-2-yl)amino)-3-methoxyphenoxy)piperidin-1-yl)methyl)cyclohexyl)methyl)thio)-2-(1-fluorocyclopropane-1-carboxamido)-3-methylbutanoyl)-4-hydroxy-N-(4-(4-methylthiazol-5-yl)benzyl)pyrrolidine-2-carboxamide]
inhibition at 0.033 µM (Rab10 pThr73 [1]; 33 nM/4 h treatment): 0 to 90%
inhibition at 0.033 µM (Rab10 pThr73 [1]; 33 nM/24 h treatment): 30 to 90%
DC50 (LRRK2^WT): 44 nM
Dmax (LRRK2^WT): 68%
inhibition at 1 µM (Rab10 pThr73 [2]; 1 μM/4 h treatment): 10 to 100%
inhibition at 1 µM (Rab10 pThr73 [2]; 1 μM/24 h treatment): 80 to 100%
EC50 (Rab10 pThr73 [2]): 25 nM
DC50 (LRRK2^G2019S): 22 nM
Dmax (LRRK2^G2019S): 79%
inhibition at 0.033 µM (Rab10 pThr73 [3]; 33 nM/4 h treatment): 0 to 70%
inhibition at 0.033 µM (Rab10 pThr73 [3]; 33 nM/24 h treatment): 0 to 80%
inhibition at 1 µM (Rab10 pThr73 [3]; 1 μM/4 h treatment): 80 to 100%
inhibition at 1 µM (Rab10 pThr73 [3]; 1 μM/24 h treatment): 80 to 100%
EC50 (Rab10 pThr73 [3]): 83 nM

CNc1nc(Nc2ccc(C(=O)N3CCC4(CCN(C[C@H]5CC[C@H](CSC(C)(C)C(NC(=O)C6(F)CC6)C(=O)N6C[C@H](O)C[C@H]6C(=O)NCc6ccc(-c7scnc7C)cc6)CC5)CC4)CC3)cc2OC)ncc1Cl (stereo partly drawn) [XL02038, (2S,4R)-1-((S)-3-((((1R,4S)-4-((9-(4-((5-chloro-4-(methylamino)pyrimidin-2-yl)amino)-3-methoxybenzoyl)-3,9-diazaspiro[5.5]undecan-3-yl)methyl)cyclohexyl)methyl)thio)-2-(1-fluorocyclopropane-1-carboxamido)-3-methylbutanoyl)-4-hydroxy-N-(4-(4-methylthiazol-5-yl)benzyl)pyrrolidine-2-carboxamide]
inhibition at 0.033 µM (Rab10 pThr73 [1]; 33 nM/4 h treatment): 0 to 90%
inhibition at 0.033 µM (Rab10 pThr73 [1]; 33 nM/24 h treatment): 30 to 90%
Dmax (LRRK2^WT): 65%
inhibition at 1 µM (Rab10 pThr73 [2]; 1 μM/4 h treatment): 10 to 100%
inhibition at 1 µM (Rab10 pThr73 [2]; 1 μM/24 h treatment): 80 to 100%
EC50 (Rab10 pThr73 [2]): 10 nM
Dmax (LRRK2^G2019S): 79%
inhibition at 0.033 µM (Rab10 pThr73 [3]; 33 nM/4 h treatment): 0 to 70%
inhibition at 0.033 µM (Rab10 pThr73 [3]; 33 nM/24 h treatment): 0 to 80%
inhibition at 1 µM (Rab10 pThr73 [3]; 1 μM/4 h treatment): 80 to 100%
inhibition at 1 µM (Rab10 pThr73 [3]; 1 μM/24 h treatment): 80 to 100%
EC50 (Rab10 pThr73 [3]): 14 nM

CNc1nc(Nc2ccc(C(=O)N3CCN(C[C@H]4CC[C@H](CSC(C)(C)[C@H](NC(=O)C5(F)CC5)C(=O)N5C[C@H](O)CC5C(=O)NCc5ccc(-c6scnc6C)cc5F)CC4)CC3)cc2OC)ncc1Cl (stereo partly drawn) [XL02047, (2S,4R)-1-(®-3-((((1r,4R)-4-((4-(4-((5-chloro-4-(methylamino)pyrimidin-2-yl)amino)-3-methoxybenzoyl)piperazin-1-yl)methyl)cyclohexyl)methyl)thio)-2-(1-fluorocyclopropane-1-carboxamido)-3-methylbutanoyl)-N-(2-fluoro-4-(4-methylthiazol-5-yl)benzyl)-4-hydroxypyrrolidine-2-carboxamide]
inhibition at 0.033 µM (Rab10 pThr73 [1]; 33 nM/4 h treatment): 0 to 90%
inhibition at 0.033 µM (Rab10 pThr73 [1]; 33 nM/24 h treatment): 30 to 90%
DC50 (LRRK2^WT): 45 nM
Dmax (LRRK2^WT): 78%
inhibition at 1 µM (Rab10 pThr73 [2]; 1 μM/4 h treatment): 10 to 100%
inhibition at 1 µM (Rab10 pThr73 [2]; 1 μM/24 h treatment): 80 to 100%
EC50 (Rab10 pThr73 [2]): 73 nM
DC50 (LRRK2^G2019S): 60 nM
Dmax (LRRK2^G2019S): 79%
inhibition at 0.033 µM (Rab10 pThr73 [3]; 33 nM/4 h treatment): 0 to 70%
inhibition at 0.033 µM (Rab10 pThr73 [3]; 33 nM/24 h treatment): 0 to 80%
inhibition at 1 µM (Rab10 pThr73 [3]; 1 μM/4 h treatment): 80 to 100%
inhibition at 1 µM (Rab10 pThr73 [3]; 1 μM/24 h treatment): 80 to 100%
EC50 (Rab10 pThr73 [3]): 228 nM

CNc1nc(Nc2ccc(C(=O)N3CCN(C[C@H]4CO[C@H](CSC(C)(C)[C@@H](NC(=O)C5(F)CC5)C(=O)N5C[C@H](O)C[C@H]5C(=O)NCc5ccc(-c6scnc6C)cc5)CO4)CC3)cc2OC)ncc1Cl [XL02098, (2S,4R)-1-((S)-3-((((2S,5S)-5-((4-(4-((5-chloro-4-(methylamino)pyrimidin-2-yl)amino)-3-methoxybenzoyl)piperazin-1-yl)methyl)-1,4-dioxan-2-yl)methyl)thio)-2-(1-fluorocyclopropane-1-carboxamido)-3-methylbutanoyl)-4-hydroxy-N-(4-(4-methylthiazol-5-yl)benzyl)pyrrolidine-2-carboxamide]
DC50 (LRRK2^WT): 50 nM
Dmax (LRRK2^WT): 59%
inhibition at 1 µM (Rab10 pThr73 [2]; 1 μM/4 h treatment): 80 to 100%
EC50 (Rab10 pThr73 [2]): 157 nM
DC50 (LRRK2^G2019S): 45 nM
Dmax (LRRK2^G2019S): 81%
inhibition at 1 µM (Rab10 pThr73 [3]; 1 μM/4 h treatment): 75 to 90%
EC50 (Rab10 pThr73 [3]): 282 nM
